The conditions of data set [1]: human, in vivo.
For data set [2] the following is noted: cited from earlier work.

As for citronella oil, in data set [1], the “burning and/or irritation of skin” value is on record as “caused burning and/or irritation”.
In the case of `CCN(CC)C(=O)c1cccc(C)c1` [DEET, n,n-diethyl-m-toluamide], in data set [2] (in vivo), the “absorption through the skin” value was “readily absorbed through the skin and enters into the blood stream”; the “effect on the nervous system” value is “adversely affect the nervous system”. For the same compound, the seizures and death entry in data set [2] (some individuals) is “caused seizures and even death in some individuals”.

Source of the values: US20060182775A1, “Insect repellent” (priority 2005, published 2006).
